Where “and” joins values, the source holds several entries; their conditions need not be identical. Equal entries are not always repeated. Where two headings read alike, the source gives them in different places.
What was measured:
[1] = biological target: EGFR (Homo sapiens (Human), UniProt P00533); conditions: read-out: dissociation constant; cited from earlier work
[2] = Solubility; assay type: physicochemical
[3] = test system: human A549 lung carcinoma cells; conditions: non-toxic doses; cited from earlier work
[4] = concentrations of 5-10 μM; cited from earlier work
[5] = test system: myeloid leukemia cells; conditions: cited from earlier work
[6] = test system: limited panel of phosphatase enzymes; conditions: cited from earlier work
[7] = biological target: T1, PNKP (Homo sapiens (Human), UniProt Q96T60); assay: Universal molecular beacon (U-MB) fluorescence assay of PNKP phosphatase activity, IC50; assay type: biochemical
Method: (§1) We chose to first rate and compare the analogues using a single-point measurement at 20 μM concentration. […] Only the top-rated analogues were further evaluated with an IC50 and a dissociation constant (Kd) determination.

[8] = biological target: T1, PNKP; assay: Binding affinity (Kd) by steady-state fluorescence spectroscopy, protein tryptophan fluorescence quenching
Method: as §1
Freschauf, G. K., Mani, R. S., Mereniuk, T. R., Fanta, M., Virgen, C. A., Dianov, G. L., Grassot, J. M., Hall, D. G., and Weinfeld, M. Mechanism of action of an imido-piperidine inhibitor of human polynucleotide kinase/phosphatase.

[9] = test system: radioresistant prostate cancer cells; conditions: cited from earlier work
[10] = test system: MDA-MB-231 breast cancer cells; conditions: non-toxic doses; cited from earlier work
[11] = biological target: T1, PNKP; conditions: intrinsic (tryptophan) fluorescence quenching titration, earlier publication; read-out: dissociation constant (Kd); cited from earlier work
[12] = biological target: murine PNKP (Mus musculus (Mouse), UniProt Q9JLV6); conditions: compared with human PNKP; cited from earlier work
[13] = test system: cells in which PNKP expression was down-regulated by shRNA; conditions: cited from earlier work
[14] = In vitro release of PNKP inhibitors by dialysis method; assay type: physicochemical
Method: The in vitro release of encapsulated PNKP inhibitors was studied using a dialysis method. Each dialysis bag (Spectrapor dialysis tubing, MWCO 3.5 kDa, Spectrum Laboratories, Rancho Dominguez, Calif.), containing 2 mL of the micellar formulation or free drug dissolved in acetone, was placed into 300 mL of distilled water maintained at 37° C. in a shaking water bath (65 rpm, Julabo SW 22 shaking water bath, Seelbach, Germany). At selected time intervals, aliquots of 200 μL from the inside of the dialysis bag were collected. The amount of PNKP inhibitor was analyzed using a Varian Prostar 210 HPLC system. Reversed phase chromatography was carried out with a Microsorb-MV 5 μm C18-100 Å column (4.6 mm×250 mm) with 20 μL of sample injected and eluted under isocratic conditions with a solution of 0.1% trifluroacetic acid/acetonitrile (1:1 v/v) at a flow rate of 1.0 mL/min at room temperature.

[15] = test system: HCT116 wild type (wt) and PTEN knockout colorectal cells xenograft tumours; assay: Subcutaneous xenograft tumour response; assay type: in vivo; conditions: NIHIII mice, intravenous, three times 2 days apart, free or encapsulated
Method: In FIG. 32, we have injected 500,000 HCT116 colorectal cancer cells subcutaneously in the right flank of NIHIII mice. […] Tumour volume was then calculated from the measurement of tumour dimensions and used to plot change in tumour volume over time.

[16] = test system: HCT116 PTEN−/− cells; assay: Clonogenic survival assay, synthetic lethality; assay type: cell-based, human
Method: (§2) Cells, seeded in 60-mm dishes 24 hours in advance, were treated with PNKP inhibitors for 9-14 consecutive days at nontoxic concentrations. Colonies were then stained with a crystal violet (Sigma, Oakville, ON, CA) stain containing 25% methanol for 30 min, after which the plates were washed in warm water and left to dry overnight. Colonies consisting of 50 cells or more were counted using an automated colony counter (Oxford Optronix, Abingdon, UK).
(§3) To investigate whether the new encapsulated PNKP 3′-phosphatase inhibitors could induce a synthetic lethal response in PTEN-deficient cells, we performed clonogenic survival assays with both HCT116 PTEN+/+ and HCT116 PTEN−/− cells. […] However, the disruption of PNKP (chemically by inhibitors) or PTEN (genetically) individually was not lethal. These findings confirm our previous observation that a synthetic lethal relationship exists between PTEN and PNKP.

[17] = test system: HCT116 cells; assay: Clonogenic survival assay, radio/chemosensitization; assay type: cell-based, human
Method: (§4) Cells, seeded in 60-mm dishes 24 hours in advance, were treated with PNKP inhibitors for 9-14 consecutive days at nontoxic concentrations. […] Colonies consisting of 50 cells or more were counted using an automated colony counter (Oxford Optronix, Abingdon, UK).

[18] = test system: HCT116 cells; assay: MTS cell proliferation assay; assay type: cell-based, human; conditions: for usable concentration in clonogenic survival assays (not affecting cell growth): 72 h MTS
Method: Free inhibitor was dissolved in DMSO in a way to keep the final concentration of DMSO<1%. After 72 h, 11 μL of the pre-mixed optimized dye solution (tetrazolium dye) was added to each well and cells were incubated for 4 more hours at 37° C. The absorbance recorded at 490 nm on a FLUOstar Optima® plate reader (BMG Labtech Inc., Durham, N.C.) was used as a representation of the relative number of metabolically active cells in the culture.

[19] = test system: HCT116 PNKP-knock out cells; assay: Clonogenic survival assay, radio/chemosensitization in PNKP knock-out cells; assay type: cell-based, human; conditions: free or encapsulated
Method: as §4

[20] = test system: HCT116 PTEN+/+ cells; assay: Clonogenic survival assay, PTEN wild-type control cells; assay type: cell-based; conditions: encapsulated, 9-14 days
Method: as §2, §3

Chain of murine PNKP (Q9JLV6 whole entry): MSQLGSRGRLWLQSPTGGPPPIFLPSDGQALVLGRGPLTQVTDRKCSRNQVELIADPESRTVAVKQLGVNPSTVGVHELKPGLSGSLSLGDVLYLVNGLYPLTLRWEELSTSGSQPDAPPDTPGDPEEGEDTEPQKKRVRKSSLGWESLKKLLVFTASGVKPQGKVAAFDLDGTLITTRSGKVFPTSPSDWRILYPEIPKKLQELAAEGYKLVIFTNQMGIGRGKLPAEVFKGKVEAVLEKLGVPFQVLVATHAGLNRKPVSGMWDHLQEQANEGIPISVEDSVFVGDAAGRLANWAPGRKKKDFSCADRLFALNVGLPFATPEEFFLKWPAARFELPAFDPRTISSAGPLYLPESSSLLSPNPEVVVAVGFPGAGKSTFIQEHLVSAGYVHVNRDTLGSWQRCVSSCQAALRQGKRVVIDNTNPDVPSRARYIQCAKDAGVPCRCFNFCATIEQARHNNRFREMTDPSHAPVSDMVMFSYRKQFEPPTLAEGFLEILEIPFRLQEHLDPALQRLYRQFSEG

In the case of YHWYGYTPQNVI [GE11], the Kd [1] is given as about 0.022 µM.
With `COc1ccccc1[C@@H](O)[C@H]1C=CC2C(=O)N(c3ccccc3)C(=O)[C@H]2N1Nc1ccc([N+](=O)[O-])cc1` (some centres unmarked) [Compound A83B4C3] the “solubility compared with A12B4C3” value [2] was “more soluble”.
For `CCCCCCCCCC[C@@H](O)[C@H]1C=CC2C(=O)N(c3ccccc3)C(=O)[C@H]2N1Nc1ccc([N+](=O)[O-])cc1` (stereo in doubt) [Compound A12B4C3, 2-(1-hydroxyundecyl)-1-(4-nitrophenylamino)-6-phenyl-6,7a-dihydro-1H-pyrrolo[3,4-b]pyridine-5,7(2H, 4aH)-dione], the “sensitization to γ-radiation and camptothecin” value [3] is listed as “able to sensitize”, the cytotoxicity [4] is listed as “low cytotoxicity” and the “sensitization to Auger electron-emitting radioimmunoconjugate” value [5] is listed as “sensitizes”. The specificity [6] was “specificity for PNKP”, the IC50 [7] was 14 µM and the Kd [8] was 0.37 µM. The “sensitization to irradiation by carbon ions” value [9] was “sensitizes”, the “sensitization to γ-radiation and camptothecin” value [10] was “able to sensitize” and the Kd [11] was 0.34 µM. The “inhibition of murine PNKP” value [12] was “only slightly reduced efficacy” and the “sensitization of PNKP-down-regulated cells” value [13] was “failed to sensitize”.
With `O=C1C2C=C[C@H]([C@H](O)c3ccc(Br)cc3)N(Nc3ccc([N+](=O)[O-])cc3)[C@@H]2C(=O)N1c1ccccc1` (some centres unmarked) [Compound A44B4C3] the “solubility compared with A12B4C3” value [2] was “more soluble”.
With `COc1ccccc1C(O)C1C=CC2C(=O)N(Cc3cccc4ccccc34)C(=O)C2N1Nc1ccc([N+](=O)[O-])cc1` (centres unmarked) [Compound A83B4C63, 2-[hydroxy(2-methoxyphenyl)methyl]-6-(naphthalen-1-ylmethyl)-1-[(4-nitrophenyl)amino]2H,4aH,7aH-pyrrolo[3,4-b]pyridine-5,7-dione] the “drug released from the dialysis bag” value ([14]; free drug, within 6 h, 37° C.) was 59.4%, the drug released ([14]; from PEO-b-PBCL micelles, within 6 h, 37° C.) was 30.6% and the drug release ([14]; from PEO-b-PCL formulations, within 24 h) was 84.2%. The drug released ([14]; from PEO-b-PCL micelles, within 6 h, 37° C.) was 66.5%, the cumulative release ([14]; from respective optimum micelles (PEO-b-PCCL for A12B4C50, PEO-b-PBCL for A83B4C63), within 24 h) was 48% and 48.2% and the “tumour volume response, PTEN positive versus PTEN negative tumour model” value [15] was “not as effective in the PTEN positive tumour model as it is in the PTEN negative tumour model”. The water solubility [2] was “low water solubility”, the “synthetic lethality in HCT116 PTEN−/− cells” value ([16]; 9-14 days treatment) was “more specifically toxic to PTEN-deficient cells than A12B4C50” and the “level at which encapsulated inhibitor induced synthetic lethality” value [16] was 4 µM. For the same molecule, the “level at which encapsulated inhibitor sensitized HCT116 cells to radiation and irinotecan” value [17] was 6 µM, the “usable concentration in clonogenic survival assays (not affecting cell growth)” value [18] was under 20 µM and the “sensitization of HCT116 PNKP-knock out cells to radiation or irinotecan” value [19] was “failed to further sensitize”.
With `CCCCCCCCCC[C@@H](O)[C@@H]1C=CC2C(=O)N(c3ccc(N4CCNCC4)cc3)C(=O)[C@H]2N1Nc1ccc([N+](=O)[O-])cc1` (some centres unmarked) [Compound A12B4C50] the “toxicity to HCT116 PTEN+/+ cells” value [20] was “showed toxicity”, the water solubility [2] was “low water solubility” and the “level at which encapsulated inhibitor induced synthetic lethality” value [16] was 4 µM. The “level at which encapsulated inhibitor sensitized HCT116 cells to radiation and irinotecan” value [17] was 4 µM, the “usable concentration in clonogenic survival assays (not affecting cell growth)” value [18] was at most 5 µM and the “concentrations at which cell growth was affected” value ([18]; free and encapsulated, 72 h) was over 5 µM.

From patent publication US11325905B2, “Imidopiperidine compounds as inhibitors of human polynucleotide kinase phosphatase” (THE GOVERNORS OF THE UNIVERSITY OF ALBERTA, priority 2017, dated 2022)
